Measurements taken from patent US20050170331A1, “Method for characterizing metabolic stability of a drug” (priority 2003, published 2005).

Test system: hepatocytes
Assay: Metabolic stability in hepatocyte suspension by hyperpolarised 13C NMR
Format: in vitro ADME
Conditions: hepatocytes 1·10^6 cells/ml in RPMI 1640, 37° C., 30 s incubation, drug candidate approximately 0.46 mM, DNP hyperpolarised
Procedure: The concentration of hepatocytes was 1·10^6 cells/ml in a suspension of RPMI 1640 medium. 1 ml of this suspension was placed in a 10 mm NMR tube with a bottom plug, reducing the active volume to […]. The tube was placed in a 9.4 T magnet with the temperature of the probe equilibrated to 37° C. A tube was connected to the bottom of the NMR tube to allow for injection of the hyperpolarised drug candidate solution into the cell suspension.
^13C2-sodiumfumerate was diluted in water and mixed (1:1 w/w) with a glycerol solution containing 40 mM trityl. The liquid sample was frozen as droplets in liquid nitrogen. 84.3 mg of this sample (3.84 mg of ^13C2-sodiumfumerate) was placed in the polariser and hyperpolarised for two hours at 93.945 GHz and 100 mW (DNP method). The dissolution was performed with Tris buffer containing 100 mg/l EDTA (pH 7.4, 20 mM, 6 ml). The active dissolution volume was 5.5 ml with full recovery of the sample. A 1 ml syringe was filled completely (volume: 1100 μl) with the dissolved ^13C2-sodiumfumerate solution, a total of 100 μl of this solution was quickly transferred to the liquid-NMR magnet and injected into the cell suspension, resulting in a total drug candidate concentration of approximately 0.46 mM. […]

SMILES: O=C([O-])/C=C/C(=O)[O-].[Na+].[Na+] [^13C2-sodiumfumerate]
- metabolites of the drug candidate observed in the 13C NMR spectrum of the mixture: two different metabolites of the drug candidate, namely succinate and malate
